IC50 and inhibition data for 74 molecules are collected here from patent US10940139B2, “Compounds that interact with the Ras superfamily for the treatment of cancers, inflammatory diseases, rasopathies, and fibrotic disease” (Shy Therapeutics LLC, priority 2017, dated 2021).

The first experiment concerns MAPK phosphorylation in PANC-1 pancreatic cancer cell line. Put plainly: MAPK cell-based phosphorylation assay (cell-direct ELISA, EGF stimulation). Particulars: Homo sapiens. The procedure, abridged: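 Cell-direct ELISA measured phospho-MAPK, with fluorescence read at 595 nm from AmpliFlu Red. Before fixation, PANC-1 cells starved overnight received 6 hours of compound (30 μM single dose or serial dilutions, 0.3% DMSO, 37° C), followed by 1.5 ng/ml EGF for 15 min.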
On the technique in general: In an ELISA, binding on a coated surface is turned into a signal by an enzyme label.
The term IC50 denotes the point on the concentration scale where inhibition reaches its midpoint. A low value points to greater potency in that assay. In turn, `Oc1nc(-c2ccccn2)nc2c(-c3ccccc3F)csc12` [drawing 1207] had an IC50 of 2 to 10 µM. `N#Cc1ncn(-c2nc(-c3ccccn3)nc3sc(-c4ccccc4)cc23)n1` [drawing 1083] had an IC50 of 2 to 10 µM. For `Oc1nc(-c2ccccn2)nc2c(Br)csc12` [drawing 1064], the 50% inhibitory concentration (IC50) is 2 to 10 µM. The molecule `Oc1nc(-c2ccccn2)nc2sccc12` [drawing 1081] had an IC50 of 11 to 30 µM. On the same count and under the same terms, the figure for `Oc1nc(-c2ccccn2)nc2c(-c3ccccc3)csc12` [drawing 1074] is below 2 µM. Same read-out and setting: the figure for `O=C(c1csc2c(O)nc(-c3ccccn3)nc12)N1CCOC(c2cccc(F)c2)C1` (centres unmarked) [drawing 1128] is above 30 µM.

The experiment is the same for the next values; noted with them: Homo sapiens, * = tested at 10 μM.
As usually defined, the inhibition is the share of the control response that was lost under treatment. As for `Oc1nc(-c2ccccn2)nc2c(-c3ccccc3F)csc12` [drawing 1207], the inhibition at 10 µM is 76 to 100%.

Molecule `Cn1ccnc1-c1nc(NCCCO)c2c(-c3ccccc3)c(-c3ccccc3)sc2n1` [drawing 1339] gave an inhibition at 10 µM of 1 to 25%. On the same count and under the same terms, the figure for `Cc1cc(OC(F)F)ccc1-c1csc2c(O)nc(-c3ccccn3)nc12` [drawing 1217] is 1 to 25%. Still for that read-out and setting: the figure for `Oc1nc(-c2ncccn2)nc2c(-c3cccc(C(F)(F)F)c3)csc12` [drawing 1368] is 1 to 25%; for `COc1cccc(-c2csc3c(O)nc(-c4ccccn4)nc23)c1` [drawing 1211] it is 1 to 25%. Still for that read-out and setting: the figure for `CC(C)OCCNc1nc(-c2nccn2C)nc2sc(-c3ccccc3)c(-c3ccccc3)c12` [drawing 1327] is 76 to 100%; for `CC(C)Cc1csc2c(O)nc(-c3ccccn3)nc12` [drawing 1255] it is 76 to 100%.

In turn, `COCCNc1nc(-c2nccn2C)nc2sc(-c3ccncc3)c(-c3ccccc3)c12` [drawing 1342] returned an inhibition at 10 µM of 0%.

For `COCCNc1nc(-c2nccn2C)nc2sc(C3CCOCC3)c(-c3ccccc3)c12` [drawing 1350], the inhibition at 10 µM lay in the range of 51 to 75%. Same read-out and setting: the figure for `Cn1cnc(-c2nc(O)c3sc(-c4ccncc4)c(-c4ccccc4)c3n2)c1` [drawing 1309] is 0%; for `Cn1cnc(-c2nc(O)c3scc(-c4cccc(C(F)(F)F)c4)c3n2)c1` [drawing 1364] it is 1 to 25%; for `Oc1nc(-c2ccccn2)nc2sc3c(c12)CCNC3` [drawing 1194] it is 25 to 50%.

Consider `Oc1nc(-c2ccccn2)nc2cc(-c3ccccc3Cl)sc12` [drawing 1316], for which the inhibition at 10 µM is 1 to 25%. Regarding `N#Cc1cccc(-c2csc3c(O)nc(-c4ccccn4)nc23)c1` [drawing 1264], the inhibition at 10 µM stood at 0%. The molecule `CC(C)Oc1cnc(-c2ccccn2)nc1O` [drawing 1252] had an inhibition at 10 µM of 1 to 25%.

`CCOCCNc1nc(-c2nccn2C)nc2sc(-c3ccccc3)c(-c3ccccc3)c12` [drawing 1335] came in with an inhibition at 10 µM of 76 to 100%. Still for that read-out and setting: the figure for `COc1ccc(-c2csc3c(O)nc(-c4nccn4C)nc23)cn1` [drawing 1373] is 51 to 75%; for `COc1cnc(CNC(=O)c2sc3c(O)nc(-c4ccccn4)nc3c2C)[nH]c1=O` [drawing 1284] it is 0%. On the same count and under the same terms, the figure for `Oc1nc(-c2ccccn2)nc2cc(-c3ccc(-c4ccccc4)cc3)sc12` [drawing 1319] is 25 to 50%; for `O=C(CCn1ccnc1)Nc1nc(-c2ccccn2)nc2sccc12` [drawing 1226] it is 1 to 25%; for `Oc1nc(-c2ccccn2)nc2c(-c3cc(F)cc(F)c3)csc12` [drawing 1237] it is 76 to 100%. `COCCN(C)c1nc(-c2nccn2C)nc2sc(-c3ccccc3)c(-c3ccccc3)c12` [drawing 1326] came in with an inhibition at 10 µM of 76 to 100%. In the case of `Oc1nc(-c2ccccn2)nc2c(-c3ccc(OC4CCCCC4)cc3)csc12` [drawing 1224], the inhibition at 10 µM was in the range of 25 to 50%.

The molecule `Nc1nc(-c2ccccn2)nc(C(=O)NCCc2ccncc2)c1Oc1ccccc1` [drawing 1311] gave an inhibition at 10 µM of 1 to 25%.

In turn, `Cc1nn(C(C)C)cc1-c1csc2c(O)nc(-c3ccccn3)nc12` [drawing 1267] returned an inhibition at 10 µM of 0%. Same read-out and setting: the figure for `CC(C)COc1ccc(-c2csc3c(O)nc(-c4nccn4C)nc23)cn1` [drawing 1372] is 25 to 50%. Molecule `CC(C)Oc1ccc(-c2csc3c(O)nc(-c4nccn4C)nc23)cc1F` [drawing 1369] showed an inhibition at 10 µM of 25 to 50%. Same read-out and setting: with `CC(C)Oc1ccc(-c2c(-c3ccccc3)sc3c(O)nc(-c4nccn4C)nc23)cc1F` [drawing 1371] the figure was 25 to 50%. Turning to `CC(C)COc1ccc(-c2csc3c(O)nc(-c4ccccn4)nc23)cn1` [drawing 1216], the inhibition at 10 µM was 51 to 75%. On the same count and under the same terms, the figure for `CC(C)COc1ccc(-c2csc3c(O)nc(-c4cn(C)cn4)nc23)cn1` [drawing 1365] is 1 to 25%; for `COCCNc1nc(-c2nccn2C)nc2sc(-c3ccccc3)c(-c3ccccc3Cl)c12` [drawing 1340] it is 76 to 100%; for `Cc1cnc(-c2ccccn2)nc1NC(=O)Cc1ccc2cnccc2c1` [drawing 1198] it is 25 to 50%. `CC(C)c1nn(C)cc1-c1csc2c(O)nc(-c3ccccn3)nc12` [drawing 1262] came in with an inhibition at 10 µM of 0%. On the same count and under the same terms, the figure for `Nc1nc(O)c2sc(-c3cccc(C(=O)N4CCC(O)C4)c3)cc2n1` (centres unmarked) [drawing 1303] is 0%.

The experiment is the same for the next values; noted with them: Homo sapiens, at 30 μM.
Molecule `COc1ccc(COCC(=O)N2CCCc3c(O)nc(-c4ccccn4)nc32)cc1` [drawing 1057] registered an inhibition at 30 µM of 1 to 25%. Still for that read-out and setting: the figure for `O=C(Nc1nnc(-c2ccccn2)[nH]1)c1ccc(CN2C(=O)CCC2=O)cc1` [drawing 1004] is 1 to 25%. On to `COC(=O)c1cc(NCC2NC(CC(C)C)=NO2)ccc1Cl` (centres unmarked), for which the inhibition at 30 µM fell in the range of 1 to 25%. The same measure, in the same setting: the figure for `O=C(c1csc2c(O)nc(-c3ccccn3)nc12)N1CCOC(c2ccccc2Cl)C1` (centres unmarked) [drawing 1149] is 1 to 25%. Turning to `O=C(CCNC(=O)c1ccco1)Nc1nnc(-c2ccccn2)[nH]1` [drawing 1011], the inhibition at 30 µM lay within 1 to 25%. Still for that read-out and setting: with `Cc1cnc(-c2ccccn2)nc1NC(=O)COCc1ccnc(O)c1` [drawing 1175] the figure was 25 to 50%; with `O=C(c1csc2c(O)nc(-c3ccccn3)nc12)N1CCN(c2ccc(O)c(Cl)c2)CC1` [drawing 1165], 1 to 25%. As to `O=c1nc(-c2ccccn2)[nH]c2sc(-c3ccccc3)cc12` [drawing 1037], the inhibition at 30 µM fell in the range of 25 to 50%.

On to `N#Cc1ncn(-c2nc(-c3ccccn3)nc3sc(-c4ccccc4)cc23)n1` [drawing 1083], for which the inhibition at 30 µM fell in the range of 76 to 100%.

Consider `COc1cc(COCC(=O)Nc2ccnc(-c3ccccn3)n2)ccn1` [drawing 1172], for which the inhibition at 30 µM lay in the range of 25 to 50%.

The molecule `O=C(c1csc2c(O)nc(-c3ccccn3)nc12)N1CCC(N2CCOCC2)CC1` [drawing 1067] showed an inhibition at 30 µM of 1 to 25%.

Turning to `Oc1nc(-c2ccccn2)nc2c(Br)csc12` [drawing 1064], the inhibition at 30 µM fell in the range of 76 to 100%. On the same count and under the same terms, the figure for `O=C(Cc1cccs1)Nc1nnc(-c2ccccn2)[nH]1` [drawing 1007] is 25 to 50%; for `O=C(c1csc2c(O)nc(-c3ccccn3)nc12)N1CCNC(c2cccc(F)c2)C1` (centres unmarked) [drawing 1130] it is 1 to 25%. On the same count and under the same terms, with `Oc1nc(-c2ccccn2)nc2sccc12` [drawing 1081] the figure was 1 to 25%; with `Brc1csc2nc(-c3ccccn3)nc(N3CCOCC3)c12` [drawing 1079], 1 to 25%; with `Nc1nc(-c2ccccn2)nc2scc(-c3ccccc3)c12` [drawing 1181], 1 to 25%. `CC(C)(C)c1nc(C(=O)Nc2nnc(-c3ccccn3)[nH]2)cs1` [drawing 1023] registered an inhibition at 30 µM of 1 to 25%. Turning to `Oc1nc(-c2ccccn2)nc2c(-c3ccccc3)csc12` [drawing 1074], the inhibition at 30 µM was in the range of 76 to 100%. Consider `COc1ccc(CCC(=O)Nc2nnc(-c3ccccn3)[nH]2)cc1F` [drawing 994], for which the inhibition at 30 µM was in the range of 51 to 75%. On the same count and under the same terms, with `COC(=O)c1csc2c(O)nc(-c3ccccn3)nc12` [drawing 1182] the figure was 25 to 50%; with `COCCC(C)Nc1nc(-c2ccccn2)nc2sccc12` (centres unmarked) [drawing 1115], 25 to 50%; with `CC(C)(C(=O)Nc1ccnc(-c2ccccn2)n1)c1ccc(C#N)cc1` [drawing 1135], 25 to 50%. Same read-out and setting: with `O=C(Nc1nnc(-c2ccccn2)[nH]1)C1CCCC1` [drawing 1008] the figure was 1 to 25%; with `O=C(Cc1c[nH]c2ccccc12)Nc1nnc(-c2ccccn2)[nH]1` [drawing 996], 51 to 75%; with `COc1cnc(CN)[nH]c1=O` [drawing 1163], 1 to 25%. `NC(=O)C1CCN(c2nc(-c3ccccn3)nc3scc(-c4ccccc4)c23)CC1` [drawing 1111]: the inhibition at 30 µM lay in the range of 1 to 25%.

Turning to `Cc1ccc(CC(=O)Nc2nnc(-c3ccccn3)[nH]2)s1` [drawing 1018], the inhibition at 30 µM was in the range of 1 to 25%. Still for that read-out and setting: with `O=C(NCCc1cnc(O)nc1)c1csc2nc(-c3ccccn3)nc(N3CCOCC3)c12` [drawing 1169] the figure was 25 to 50%; with `Nc1nc(O)c2scc(-c3ccccc3Cl)c2n1` [drawing 1073], 1 to 25%. On the same count and under the same terms, the figure for `COc1ccc(CN2CCN(C(=O)c3csc4c(O)nc(-c5ccccn5)nc34)CC2)cc1` [drawing 1124] is 1 to 25%; for `Cc1nnc(C(Nc2nc(-c3ccccn3)nc3scc(-c4ccccc4)c23)c2ccccc2)n1C` (centres unmarked) [drawing 1084] it is 51 to 75%. The same measure, in the same setting: the figure for `Nc1nc(O)c2nc[nH]c2n1` [drawing 1112] is 1 to 25%. With `CC(c1ccccc1)N1CCN(C(=O)c2csc3c(O)nc(-c4ccccn4)nc23)CC1` (centres unmarked) [drawing 1166], the inhibition at 30 µM lay in the range of 1 to 25%. As to `O=C(Cn1cnc2ccccc2c1=O)Nc1nc(-c2ccccn2)cs1` [drawing 1030], the inhibition at 30 µM lay within 1 to 25%. On the same count and under the same terms, with `O=c1nc(-c2ccccn2)[nH]c2scc(-c3ccccc3Cl)c12` [drawing 1036] the figure was 25 to 50%. The same measure, in the same setting: the figure for `c1ccc(-c2csc3nc(-c4ccccn4)nc(NN4CCOCC4)c23)cc1` [drawing 1106] is 1 to 25%. Same read-out and setting: with `CC(C)NC(=O)Nc1cccc(C(=O)Nc2nnc(-c3ccccn3)[nH]2)c1` [drawing 993] the figure was 1 to 25%.

In turn, `O=C(c1csc2c(O)nc(-c3ccccn3)nc12)N1CCOC(c2cccc(F)c2)C1` (centres unmarked) [drawing 1128] returned an inhibition at 30 µM of 1 to 25%. Molecule `CC(OCc1ccccc1)C(=O)Nc1nnc(-c2ccccn2)[nH]1` (centres unmarked) [drawing 1016] registered an inhibition at 30 µM of 1 to 25%.
